One test relates to HCV replicon. The test is described as follows: HCV replicon FRET assay (HCV RdRp cell line). The test is classed as cell-based. The following applies: Hepatitis C virus, read-out: RdRp Inhibition Range, EC50. The text has this: FRET Assay Preparation. To perform the HCV FRET screening assay, 96-well cell culture plates were used. The FRET peptide (Anaspec, Inc.) (Taliani et al., Anal. Biochem. 240:60-67 (1996), expressly incorporated by reference in its entirety) contains a fluorescence donor, EDANS, near one end of the peptide and an acceptor, DABCYL, near the other end. The fluorescence of the peptide is quenched by […] resonance energy transfer (RET) between the donor and the acceptor, but as the NS3 protease cleaves the peptide the products are released from RET quenching and the fluorescence of the donor becomes apparent. […]
FRET Assay and Cytotoxicity Assay. […] After reading in a Cytoflour 4000 instrument (PE Biosystems), plates were rinsed with PBS and then used for FRET assay by the addition of 30 ul of the FRET peptide assay reagent described above (FRET Assay Preparation) per well. The plate was then placed into the Cytoflour 4000 instrument which had been set to 340 excite/490 emission, automatic mode for 20 cycles and the plate read in a kinetic mode. Typically, the signal to noise using an endpoint analysis after the reads was at least three-fold.
Compound analysis was determined by quantification of the relative HCV replicon inhibition and the relative cytotoxicity values. […]
A general note: In antiviral work, replicon cells carry a viral genome segment that copies itself.

Test [1] deals with T1, HCV NS5B RdRp genotype 1b (Hepatitis C virus genotype 1b, UniProt Q9WMX2).
T1 construct: The protein was expressed with an 18 amino acid C-terminal truncation to enhance the solubility; made in house; host or cells: E. coli BL21(DE3)
The test is described as follows: HCV NS5B RdRp enzyme assay. Format: biochemical. The following applies: HCV RdRp genotype 1b enzyme; read-out: RdRp Inhibition Range, IC50. On the procedure: HCV NS5B RdRp cloning, expression, and purification. The cDNA encoding the NS5B protein of HCV, genotype 1b, was cloned into the pET21a expression vector. The protein was expressed with an 18 amino acid C-terminal truncation to enhance the solubility. The E. coli competent cell line BL21(DE3) was used for expression of the protein. Cultures were grown at 37° C. for ˜4 hours until the cultures reached an optical density of 2.0 at 600 nm. The cultures were cooled to 20° C. and induced with 1 mM IPTG. Fresh ampicillin was added to a final concentration of 50 μg/ml and the cells were grown overnight at 20° C.
Cell pellets (3 L) were lysed for purification to yield 15-24 mgs of purified NS5B. The lysis buffer consisted of 20 mM Tris-HCl, pH 7.4, 500 mM NaCl, 0.5% triton X-100, 1 mM DTT, 1 mM EDTA, 20% glycerol, 0.5 mg/ml lysozyme, 10 mM MgCl2, 15 ug/ml deoxyribonuclease I, and Complete TM protease inhibitor tablets (Roche). After addition of the lysis buffer, frozen cell pellets were resuspended using a tissue homogenizer. To reduce the viscosity of the sample, aliquots of the lysate were sonicated on ice using a microtip attached to a Branson sonicator. The sonicated lysate was centrifuged at 100,000×g for 1 hr at 4° C. and filtered through a 0.2 μm filter unit (Corning). […]
HCV NS5B RdRp enzyme assay. […] Plates were read on a Packard Top Count NXT. […]

Bounds are passed on as bounds.

T1 sequence (Q9WMX2 2420-2992): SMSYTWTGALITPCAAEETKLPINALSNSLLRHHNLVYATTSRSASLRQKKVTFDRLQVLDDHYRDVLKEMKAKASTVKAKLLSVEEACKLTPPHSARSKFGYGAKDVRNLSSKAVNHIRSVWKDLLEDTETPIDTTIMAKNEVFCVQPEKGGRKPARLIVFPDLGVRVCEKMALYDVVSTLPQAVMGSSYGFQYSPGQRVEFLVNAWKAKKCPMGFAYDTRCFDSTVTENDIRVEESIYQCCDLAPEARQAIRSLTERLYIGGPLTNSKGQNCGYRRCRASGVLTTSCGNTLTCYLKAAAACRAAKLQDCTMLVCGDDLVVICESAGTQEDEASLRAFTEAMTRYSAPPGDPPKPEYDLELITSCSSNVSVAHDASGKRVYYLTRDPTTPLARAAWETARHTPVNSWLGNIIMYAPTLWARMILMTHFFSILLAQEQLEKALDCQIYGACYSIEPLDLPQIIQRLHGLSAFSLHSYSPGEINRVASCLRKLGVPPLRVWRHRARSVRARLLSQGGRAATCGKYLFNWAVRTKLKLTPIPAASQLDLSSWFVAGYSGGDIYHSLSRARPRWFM

As for `Cn1c(-c2ccoc2)c(C2CCCCC2)c2ccc(C(=O)Nc3nnn[nH]3)cc21` [Compound 1], the EC50 (in general, the concentration that produces a half-maximal response) in the test with HCV replicon was less than 5 µM. Moreover, in test [1], the IC50 (as a rule, the point on the concentration scale where inhibition reaches its midpoint) was 0.1 to 1 µM.

In the case of `Cn1c(-c2ccoc2)c(C2CCCCC2)c2ccc(-c3nnn[nH]3)cc21` [Compound 2], in the test with HCV replicon, the EC50 fell in the range of 5 to 10 µM. In test [1], the IC50 lay in the range of 0.1 to 1 µM.

The values above are taken from patent US20050119318A1, “Inhibitors of HCV replication” (priority 2003, published 2005).
